Bridges are numbered along the chain shown (N, C = ends). Where no end group is shown, it is not given here.
Tests used:
GPR4 [1] = molecular target: T1, GPR4 (Homo sapiens, UniProt P46093); experiment: Radioligand binding to homogenates of GPR4-transfected CHO cells; settings: cold competitors, GPR4-transfected CHO cell homogenates
T1 construct: were used to generate full length GPR4, which was digested with EcoRI and Xba I and cloned into the pBs3HA vector; expressed in transfected cells
Procedure: (§1) To characterize the binding of SPC and LPC to GPR4 and TDAG8, we conducted radioligand binding assays. CHO cells were chosen for GPR4 binding assays, since HEK293 cells express relatively high levels of endogenous GPR4. CHO cells stably transfected with empty vector or GPR4 were serum starved for 20 h, then collected after exposure to 2 mM EDTA in PBS. The pelleted cells were stored at −80° C. until use. Binding assays were performed essentially as described previously (Xu et al. (2000) Nat Cell Biol 2, 261-267), except binding was performed at 4° C. Briefly, frozen cells (10^6 cells/ml) were homogenized in a binding buffer. Assays were performed in 96-well plates in triplicate with 100 μl cell homogenate (equivalent to 10^5 cells/well). Different amounts of [^3H]SPC or [^3H]16:0-LPC were added to the cell homogenates in 50 μl of binding buffer, in the presence or absence of cold SPC or 16:0-LPC, or other competitors. The plates were incubated at 4° C. for 120 min, unless otherwise indicated. Cell-bound [^3H]SPC or [^3H]LPC was collected onto a filter (Printed Filtermat A, Wallac, Gaithersburg, Md.) using an automated cell harvester (HARVESTER 96, Tomtec, Orange, Conn.). Specific binding was calculated by subtraction of nonspecific binding (binding detected in the presence of 100-fold excess unlabeled SPC or 16:0-LPC) from the total binding.
Cell homogenates were used for binding assays. Binding was conducted at 4° C. for 120 min or as indicated. [^3H]SPC and [^3H]16:0-LPC specifically bound to cell homogenates from GPR4-transfected CHO cells in a time-dependent manner and reached equilibrium after 60 min incubation at 4° C. […] The maximum binding capacities for SPC and 16:0-LPC were 996 fmole/10^5 cells for SPC and 1,528 fmole/10^5 cells for 16:0-LPC. […] Binding assays using [^3H]18:0-LPC gave similar results. We also tested the four glycosphingolipids, Psy, Glu-Sph, Gal-Cer, and Lac-Cer, for their ability to compete for the binding of [^3H]SPC and [^3H]16:0-LPC to GPR4.

GPR4 [2] = molecular target: T1, GPR4; experiment: SRE luciferase reporter in GPR4-transfected HEK293 cells; type: cell-based; settings: GPR4 cotransfection
Procedure: (§2) The serum-response element (SRE) reporter system is a sensitive assay for receptors of lipid factors (An et al. (1998) J Biol Chem 273, 7906-7910; An et al. (1999) Mol Pharmacol 55, 787-794). The SRE reporter system used herein (pSRE-Luc) was a gift from Dr. Songzhu An (UCSF), or may be purchased from Stratagene (La Jolla, Calif.). Both systems give identical results. HEK293 and HEK293GPR4 cells were cultured in RPMI1640 with 10% FBS in 10 cm dishes to ˜85% confluence. To the cells in each dish, pSRE-Luc (10 μg) was transfected in the presence of 60 μl LipofectAMINE reagent. Cells were seeded in 96-well plates 16 h after transfection, incubated for another 24 h in RPMI1640 with 10% FBS, and starved in serum-free medium for 16 h. SPC (dissolved in PBS to 10 mM) and other lipids (LPCs were dissolved in 70% ethanol. Other lipids were dissolved in PBS, 70-95% ethanol, or 100% MeOH) were diluted in serum free RPMI 1640 and added to the cells, followed by a 10 h incubation. Luciferase activity was measured in Microlite™ 1 plates (DYNEX Technologies, Inc., Virginia) using 60 μl of cell lysate and 20 μl luciferase substrate. PTX (100 ng/ml) was added during the 16 h serum starvation period and pcDNA1-C3 (encoding the C3-exoenzyme, 2 μg) was co-transfected with pSRE-Luc (10 μg). All experiments were performed in quadruplicate and were repeated at least three times. The Student's t test was performed using the GraphPad Instat software (San Diego, Calif.). p<0.05 was considered to be statistically significant.

TDAG8 [3] = molecular target: T2, TDAG8 (Homo sapiens, UniProt Q8IYL9); experiment: SRE luciferase reporter in TDAG8-transfected HEK293 cells; type: cell-based; settings: TDAG8 cotransfection
T2 construct: expressed in transfected cells

[4] = tested on: vector-transfected HEK293 cells; experiment: SRE luciferase reporter in vector-transfected HEK293 cells; type: cell-based, human
Procedure: as §2

GPR4 [5] = molecular target: T1, GPR4; experiment: ERK MAP kinase activation (phospho-ERK Western blot) in GPR4-infected Swiss 3T3 cells; type: cell-based; settings: GPR4-ires-GFP vs GFP Swiss 3T3 cells; SPC and LPC 100 nM
Procedure: MAP kinases are key signaling intermediates of DNA synthesis and cell proliferation. Swiss 3T3 cells were infected with MSCV GPR4-ires-GFP or MSCV ires-GFP, and subsequently cells sorted by FACS for positive expression of GFP as described previously (Kabarowski et al. (2000) Proc Natl Acad Sci USA. 97, 12109-12114). Cells were plated in 6-well plates in DMEM containing 5% FBS, serum-starved overnight, and then treated lipids in DMEM for the indicated times. Cells were lysed on ice in RIPA buffer containing 50 mM Tris-HCl, pH 7.5, 1% Nonidet P-40, 0.5% deoxycholate,0.1% SDS, 150 mM NaCl, 2 mM EGTA, 25 mM sodium fluoride, 1 mM sodium orthovanadate, and 1× protease inhibitors (Sigma P8340). Lysates containing equal amounts of protein were separated on 10% SDS-polyacrylamide gels and transferred onto nitrocellulose membranes. Antibodies against phosphorylated ERK1/2 (Cell Signaling Technologies; Beverly, Mass.) were used to probe the membrane and the ECL system (Amersham) was used for detection. To normalize the amounts of protein loaded in each lane, membranes were stripped and re-probed with antibodies against total ERK (Cell Signaling Technologies). In some experiments, cells were pretreated with 100 ng/ml PTX for 12-16 h prior to SPC and LPC stimulation.

GPR4 [6] = molecular target: T1, GPR4; experiment: Cell migration in modified Boyden chamber, GPR4-ires-GFP vs GFP Swiss 3T3 cells; type: cell-based; settings: for chemokinetic assay: cell motility vs controls: lipid 100 nM in both upper and lower chambers, GFP or GFP-GPR4 Swiss 3T3 cells
Procedure: Chemotaxis was measured in a modified Boyden chamber assay. Briefly, different lipids were added to the lower chambers. GPR4-ires-GFP- and GFP-Swiss 3T3 cells were serum starved for 4 h, trypsinized, and seeded in the upper chambers of Boyden-transwell plates (Corning Inc., Corning, N.Y.). The chambers were incubated for 6 to 8 h. The number of cells that migrated to the lower face of the membrane was counted in 4 random fields. Data are represented as the average ±SD of three independent experiments. For the chemokinetic assay, the same concentrations of lipids were added to both the upper and lower chambers. For Rho inhibition studies, C3-exoenxyme was transiently transfected into Swiss 3T3 cells and cell migration assays were performed 48 hours later.

GPR4 [7] = molecular target: T1, GPR4; experiment: Internalization of GPR4-GFP in HEK293 cells (confocal microscopy); type: cell-based; settings: 1 μM lipid, 37° C., GPR4-GFP HEK293 cells
Procedure: pGPR4-GFP stably expressing HEK293 cells were cultured in 6 cm tissue culture dishes in RPMI1640 with 10% FBS. After 16-24 h serum starvation, cells were treated with different lipids at 37° C. for 2 h. Cells were washed with cold PBS and fixed with 4% paraformaldehyde in PBS. The subcellular localization of GPR4-GFP protein was visualized under a Leica TV confocal fluorescence microscope with a 63× oil immersion lens (Wetzler, Heidelberg, Germany). The excitation and emission wavelengths were 488 nm and 515-540 nm, respectively.
G protein coupled receptors undergo agonist-dependent desensitization and internalization. When HEK293 cells are transfected with the pEGFP-N1 vector, GFP protein is expressed in the cytosol of the cells. The GPR4-GFP and TDAG8-GFP fusion proteins, on the other hand, was expressed only on the plasma membrane.

TDAG8 [8] = molecular target: T2, TDAG8; experiment: Binding of phospholipids to TDAG8
Procedure: as §1
Using functional and binding assays, we have identified the ligands for TDAG8.

TDAG8 [9] = molecular target: T2, TDAG8; experiment: TDAG8 receptor internalization; type: cell-based
Description: G protein coupled receptors undergo agonist-dependent desensitization and internalization.

HEY ovarian cancer cells = experiment: DNA synthesis / growth of HEY ovarian cancer cells with SPC and phage preparations; type: cell-based, human; settings: phage mixed with SPC, 30 min incubation
Procedure: To determine if these selected phage clones were capable of blocking a biological effect of SPC, we mixed phage preparations with SPC. After a 30 min incubation, this mixture was added to HEY cells and its effect on SPC-induced cell proliferation was tested. If a phage clone was carrying a specific sequence which binds to SPC, the addition of the phage to SPC could block the effect of SPC on HEY cells.

T1 sequence (P46093 whole entry): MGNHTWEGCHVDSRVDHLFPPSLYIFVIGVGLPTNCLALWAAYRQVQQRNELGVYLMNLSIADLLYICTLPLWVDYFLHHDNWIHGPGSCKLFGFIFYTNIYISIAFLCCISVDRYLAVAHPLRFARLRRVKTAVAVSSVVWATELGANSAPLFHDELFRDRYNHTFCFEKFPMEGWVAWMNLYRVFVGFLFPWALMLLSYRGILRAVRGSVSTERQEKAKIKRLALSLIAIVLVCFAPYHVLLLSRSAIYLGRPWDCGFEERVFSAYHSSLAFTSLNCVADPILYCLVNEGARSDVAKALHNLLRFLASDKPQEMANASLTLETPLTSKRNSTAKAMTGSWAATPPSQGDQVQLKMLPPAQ
T2 sequence (Q8IYL9 whole entry): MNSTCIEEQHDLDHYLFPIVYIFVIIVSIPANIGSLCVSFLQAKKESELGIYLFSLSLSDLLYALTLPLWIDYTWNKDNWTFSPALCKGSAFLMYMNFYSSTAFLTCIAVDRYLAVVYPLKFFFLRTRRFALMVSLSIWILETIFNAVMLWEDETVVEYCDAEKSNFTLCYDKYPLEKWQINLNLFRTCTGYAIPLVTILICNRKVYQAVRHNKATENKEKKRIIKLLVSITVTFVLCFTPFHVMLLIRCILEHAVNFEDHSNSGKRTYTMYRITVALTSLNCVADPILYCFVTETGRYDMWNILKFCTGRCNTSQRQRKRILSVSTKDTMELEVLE

Compound | competition for binding of [3H]SPC and [3H]16:0-LPC to GPR4 (GPR4 [1]) | transcriptional activation of SRE (in words) (GPR4 [2]) | transcriptional activation of SRE (in words) (TDAG8 [3]) | transcriptional activation of SRE (in words) [4] | GPR4-dependent ERK activation (in words) (GPR4 [5]) | cell migration in GPR4- vs. vector-transfected cells (in words) (GPR4 [6]) | chemokinetic assay: cell motility vs controls (GPR4 [6]) | internalization of GPR4 (GPR4 [7]) | binding to TDAG8 (TDAG8 [8]) | TDAG8 receptor internalization (TDAG8 [9]) | effect of phage on the growth inhibitory effect of SPC (HEY ovarian cancer cells) | effect of phage on the growth inhibitory effect of SPC (HEY ovarian cancer cells; listed as clone 414) | effect of phage on the growth inhibitory effect of SPC (HEY ovarian cancer cells; listed as phage 414)
CCCCCCCCCCCCC/C=C/[C@@H](O)[C@@H](N)COP(=O)(O)O [S1P, sphingosine-1-phosphate] | not | not altered | not altered | induced significant transcriptional activation of SRE | activation was independent of GPR4 expression | did not alter cell migration | slightly inhibited |  |  |  |  |  | 
platelet activating factor [PAF] | not | none of them induced significant transcriptional activation of SRE |  |  | activation was independent of GPR4 expression | did not alter cell migration | slightly enhanced | not | able to bind to TDAG8 | induced TDAG8 receptor internalization |  |  | 
lysophosphatidic acid [LPA] | not | not altered | not altered | induced significant transcriptional activation of SRE |  | did not alter cell migration | did not show a significant effect |  |  |  |  |  | 
Cys-His-Thr-Gln-Ala-Asp-Ser-Cys (CHTQADSC; disulfide 1-8) [#414] |  |  |  |  |  |  |  |  |  |  | able to inhibit the growth inhibitory effect of SPC on HEY cells | inverted the growth inhibitory effect of SPC | blocked the growth inhibitory effect of SPC on DNA synthesis

Source: patent US20020107197A1, “Ligands for G protein coupled receptors and methods of using them” (priority 2000, published 2002)
